Read-outs that look alike come from different tables or passages of the source.
Experiments:
[1] = system: murine splenocytes stimulated with α-CD3 antibody; assay: Cytokine secretion after α-CD3 stimulation; format: cell-based, Balb/C mice; settings: Mus musculus, Splenocyte, 24 h
Protocol: The ability of test compounds to inhibit cytokine release by murine splenocytes after stimulation with α-CD3 antibody was also investigated.
2×10^6 splenocytes from Balb/C female mice, 8-10 weeks old in 220 μl of complete medium were stimulated with 0.1 μg of hamster anti mouse CD3ε antibody in presence of various concentrations of test compounds. After 24 h of incubation at 37° C., 5% CO2, supernatant were collected and cytokine titers were determined by flow cytometry according manufacturer protocols (MCB United States, Arlington, Mass., USA).
The results are shown in FIG. 1 compared to a DMSO negative control (▾). […].

RIOK2 = target: T1, RIOK2 (Homo sapiens, UniProt Q9BVS4); assay: Kinase-tagged phage competition binding assay (qPCR), 382-kinase library
T1 construct: made in house; host or cells: E. coli BL21-derived host (T7 phage) or HEK-293

PAK1 [2] = target: T2, PAK1 (Homo sapiens, UniProt Q13153); assay: as above
T2 construct: made in house; host or cells: E. coli BL21-derived host (T7 phage) or HEK-293

ADCK3 = target: T3, ADCK3 (Homo sapiens, UniProt Q8NI60); assay: as above
T3 construct: made in house; host or cells: E. coli BL21-derived host (T7 phage) or HEK-293

PAK1 [3] = target: T2, PAK1; assay: Commercial kinase activity assay (Invitrogen, fluorescence); format: biochemical; settings: 10 μM test compound
PIK3CB = target: T4, PIK3CB (Homo sapiens, UniProt P42338); assay: Kinase-tagged phage competition binding assay (qPCR), 382-kinase library
T4 construct: made in house; host or cells: E. coli BL21-derived host (T7 phage) or HEK-293

YSK4 = target: T5, YSK4 (Homo sapiens, UniProt Q56UN5); assay: as above
T5 construct: made in house; host or cells: E. coli BL21-derived host (T7 phage) or HEK-293
T5 sequence (Q56UN5 1-1328): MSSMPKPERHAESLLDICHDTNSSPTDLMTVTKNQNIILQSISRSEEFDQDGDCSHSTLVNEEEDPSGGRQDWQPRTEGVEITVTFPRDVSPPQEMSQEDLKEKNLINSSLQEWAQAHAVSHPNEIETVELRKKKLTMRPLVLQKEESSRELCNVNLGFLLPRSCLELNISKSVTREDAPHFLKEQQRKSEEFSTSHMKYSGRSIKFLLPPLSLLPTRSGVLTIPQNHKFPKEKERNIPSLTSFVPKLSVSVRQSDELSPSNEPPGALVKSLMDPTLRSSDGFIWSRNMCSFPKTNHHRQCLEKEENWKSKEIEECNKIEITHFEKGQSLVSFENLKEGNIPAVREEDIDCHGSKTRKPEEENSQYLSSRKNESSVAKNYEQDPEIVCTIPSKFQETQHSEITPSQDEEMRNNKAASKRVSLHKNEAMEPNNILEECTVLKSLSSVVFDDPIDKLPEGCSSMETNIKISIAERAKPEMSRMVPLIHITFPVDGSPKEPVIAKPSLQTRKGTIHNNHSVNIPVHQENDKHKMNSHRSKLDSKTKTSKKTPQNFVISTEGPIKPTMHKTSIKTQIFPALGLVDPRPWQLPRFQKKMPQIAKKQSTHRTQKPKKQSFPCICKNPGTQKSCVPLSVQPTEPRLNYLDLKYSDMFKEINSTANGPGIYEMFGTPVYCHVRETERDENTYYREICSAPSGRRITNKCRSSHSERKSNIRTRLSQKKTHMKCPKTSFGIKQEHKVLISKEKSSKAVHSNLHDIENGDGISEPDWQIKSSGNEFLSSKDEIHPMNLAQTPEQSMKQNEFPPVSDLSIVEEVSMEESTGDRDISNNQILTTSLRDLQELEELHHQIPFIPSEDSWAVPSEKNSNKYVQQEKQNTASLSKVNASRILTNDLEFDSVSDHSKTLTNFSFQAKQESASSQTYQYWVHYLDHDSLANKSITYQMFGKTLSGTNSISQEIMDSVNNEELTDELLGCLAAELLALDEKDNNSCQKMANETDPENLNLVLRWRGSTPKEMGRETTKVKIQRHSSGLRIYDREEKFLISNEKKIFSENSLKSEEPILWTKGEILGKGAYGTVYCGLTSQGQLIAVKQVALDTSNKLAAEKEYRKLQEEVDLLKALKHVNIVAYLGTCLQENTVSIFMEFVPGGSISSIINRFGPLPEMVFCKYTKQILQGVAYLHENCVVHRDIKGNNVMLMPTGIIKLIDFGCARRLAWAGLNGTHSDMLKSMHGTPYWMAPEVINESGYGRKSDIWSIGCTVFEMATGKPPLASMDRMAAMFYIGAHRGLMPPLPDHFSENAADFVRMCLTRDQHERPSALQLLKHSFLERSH

[4] = 10 μM compound, read-out: % Inhibition of substrate binding
[5] = stated for the 8 kinases of Table 1

T2 sequence (Q13153 whole entry): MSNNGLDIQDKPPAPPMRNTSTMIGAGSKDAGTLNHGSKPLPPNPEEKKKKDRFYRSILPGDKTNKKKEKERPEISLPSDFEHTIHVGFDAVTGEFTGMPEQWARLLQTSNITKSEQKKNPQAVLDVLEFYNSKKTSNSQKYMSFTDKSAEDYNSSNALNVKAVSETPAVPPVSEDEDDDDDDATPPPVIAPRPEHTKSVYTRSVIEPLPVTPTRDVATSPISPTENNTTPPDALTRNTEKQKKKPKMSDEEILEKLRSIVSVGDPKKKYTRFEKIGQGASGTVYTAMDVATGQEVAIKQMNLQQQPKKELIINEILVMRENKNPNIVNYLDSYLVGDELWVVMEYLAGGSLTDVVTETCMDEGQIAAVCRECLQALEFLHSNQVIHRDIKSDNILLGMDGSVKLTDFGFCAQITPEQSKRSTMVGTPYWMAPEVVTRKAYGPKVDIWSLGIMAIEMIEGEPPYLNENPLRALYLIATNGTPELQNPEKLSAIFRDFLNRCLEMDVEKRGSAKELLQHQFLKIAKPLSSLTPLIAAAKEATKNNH
T1 sequence (Q9BVS4 whole entry): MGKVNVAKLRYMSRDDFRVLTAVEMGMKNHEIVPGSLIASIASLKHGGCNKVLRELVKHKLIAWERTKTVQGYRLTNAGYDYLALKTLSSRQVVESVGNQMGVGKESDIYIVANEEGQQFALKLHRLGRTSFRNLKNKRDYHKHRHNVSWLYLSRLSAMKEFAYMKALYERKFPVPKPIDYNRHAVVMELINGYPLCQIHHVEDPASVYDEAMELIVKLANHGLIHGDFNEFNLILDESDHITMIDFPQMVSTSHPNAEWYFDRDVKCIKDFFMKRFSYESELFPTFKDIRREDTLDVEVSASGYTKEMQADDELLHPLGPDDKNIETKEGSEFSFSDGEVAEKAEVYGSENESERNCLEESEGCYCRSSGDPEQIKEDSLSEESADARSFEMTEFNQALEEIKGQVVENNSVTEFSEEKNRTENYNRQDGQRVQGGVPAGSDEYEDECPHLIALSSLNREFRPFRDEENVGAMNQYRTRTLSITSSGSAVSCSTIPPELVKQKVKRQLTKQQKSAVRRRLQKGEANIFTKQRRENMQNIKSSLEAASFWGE
T3 sequence (Q8NI60 163-647): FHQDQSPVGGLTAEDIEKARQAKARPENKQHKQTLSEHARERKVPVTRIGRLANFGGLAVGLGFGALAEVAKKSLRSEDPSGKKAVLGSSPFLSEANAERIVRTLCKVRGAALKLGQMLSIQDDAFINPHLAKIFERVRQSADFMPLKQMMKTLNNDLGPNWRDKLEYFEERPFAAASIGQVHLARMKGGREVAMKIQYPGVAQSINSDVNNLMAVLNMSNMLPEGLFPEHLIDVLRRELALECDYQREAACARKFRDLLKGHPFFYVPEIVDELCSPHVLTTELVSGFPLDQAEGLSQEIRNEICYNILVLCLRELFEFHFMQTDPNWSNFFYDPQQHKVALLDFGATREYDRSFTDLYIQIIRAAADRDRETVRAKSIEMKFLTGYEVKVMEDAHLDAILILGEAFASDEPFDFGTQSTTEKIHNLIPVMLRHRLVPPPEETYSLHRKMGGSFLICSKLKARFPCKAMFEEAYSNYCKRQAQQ
T4 sequence (P42338 whole entry): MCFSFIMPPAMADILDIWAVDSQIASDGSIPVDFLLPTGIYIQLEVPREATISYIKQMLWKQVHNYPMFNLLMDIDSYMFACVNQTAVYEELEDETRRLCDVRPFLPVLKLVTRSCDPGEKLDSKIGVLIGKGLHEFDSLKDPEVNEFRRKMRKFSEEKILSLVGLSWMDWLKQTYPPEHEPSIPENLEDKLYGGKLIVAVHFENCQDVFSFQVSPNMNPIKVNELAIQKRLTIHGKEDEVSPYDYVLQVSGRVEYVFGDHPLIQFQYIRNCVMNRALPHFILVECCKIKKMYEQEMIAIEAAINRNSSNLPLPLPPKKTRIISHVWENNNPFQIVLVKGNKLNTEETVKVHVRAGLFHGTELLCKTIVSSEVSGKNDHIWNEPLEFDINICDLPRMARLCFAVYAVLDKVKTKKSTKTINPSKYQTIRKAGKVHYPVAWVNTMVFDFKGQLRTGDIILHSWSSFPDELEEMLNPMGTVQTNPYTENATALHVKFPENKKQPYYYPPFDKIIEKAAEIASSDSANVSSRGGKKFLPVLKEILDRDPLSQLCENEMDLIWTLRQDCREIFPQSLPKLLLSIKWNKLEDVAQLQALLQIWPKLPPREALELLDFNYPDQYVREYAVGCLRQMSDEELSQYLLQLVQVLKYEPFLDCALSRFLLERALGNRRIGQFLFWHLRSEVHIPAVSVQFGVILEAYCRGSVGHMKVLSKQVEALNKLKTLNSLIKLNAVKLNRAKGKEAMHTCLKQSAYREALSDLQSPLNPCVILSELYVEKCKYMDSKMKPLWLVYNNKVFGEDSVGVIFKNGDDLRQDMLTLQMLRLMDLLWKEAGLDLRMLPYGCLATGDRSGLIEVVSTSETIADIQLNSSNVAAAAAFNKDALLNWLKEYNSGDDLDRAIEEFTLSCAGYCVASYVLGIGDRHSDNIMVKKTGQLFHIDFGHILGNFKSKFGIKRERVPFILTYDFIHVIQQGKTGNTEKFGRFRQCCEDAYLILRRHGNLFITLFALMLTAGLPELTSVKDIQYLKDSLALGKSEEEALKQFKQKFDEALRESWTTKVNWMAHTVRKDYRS

SMILES: Nc1nc(N2CCN(C(=O)COc3ccc(Cl)cc3)CC2)c2nc(-c3cccnc3)sc2n1 [formula (1), 5-amino-7-[4-(4-chlorophenoxyacetyl)piperazin-1-yl]-2-(pyridin-3-yl)thiazolo[5,4-d]pyrimidine]
- IC50 ([1]; read-out: IC50 for inhibition of IFNγ release): 0.204 µM
- IC50 ([1]; read-out: IC50 for inhibition of IL2 release): 0.076 µM
- inhibition at 10 µM (RIOK2; [4]): 94%
- IC50 (RIOK2; [5]): < 10 µM
- inhibition at 10 µM (PAK1 [2]; [4]): 54%
- IC50 (PAK1 [2]; [5]): < 10 µM
- inhibition at 10 µM (ADCK3; [4]): 68%
- IC50 (ADCK3; [5]): < 10 µM
- Kinase activity (PAK1 [3]): 115 percentage of control
- inhibition at 10 µM (PIK3CB; [4]): 56%
- IC50 (PIK3CB; [5]): < 10 µM
- inhibition at 10 µM (YSK4; [4]): 79%
- IC50 (YSK4; [5]): < 10 µM
